# Measurements reported in PubChem BioAssay AID248 (DTP/NCI, 2004).
# Where “and” joins values, the source holds several entries; their conditions need not be identical. Equal entries are not always repeated. Inconclusive results and toxic doses are left out.
# System: L1210 leukemia ip in BDF1 mice, survival T/C
# Assay: NCI In Vivo Anticancer Drug Screen. Data for tumor model L1210 Leukemia (intraperitoneal) in B6D2F1 (BDF1) mice
# Conditions: higher = longer survival
# How it was run: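 Survival endpoint. Drug-treated group vs vehicle group, expressed as T divided by C. Tumor passaged by transplantation.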
# [1] = endpoint: mean survival time, dose: 100.0 mg/kg/injection, schedule: Q04DX003 (ip), vehicle: Klucel (hydroxypropylcellulose) (HPC)
# [2] = endpoint: mean survival time, dose: 200.0 mg/kg/injection, schedule: Q04DX003 (ip), vehicle: Klucel (hydroxypropylcellulose) (HPC)
# [3] = endpoint: mean survival time, dose: 400.0 mg/kg/injection, schedule: Q04DX003 (ip), vehicle: Klucel (hydroxypropylcellulose) (HPC)
# [4] = endpoint: mean survival time, dose: 100.0 mg/kg/injection, schedule: Q01DX001 (ip), vehicle: saline
# [5] = endpoint: mean survival time, dose: 200.0 mg/kg/injection, schedule: Q01DX001 (ip), vehicle: saline
# [6] = endpoint: mean survival time, dose: 100.0 mg/kg/injection, schedule: Q04DX003 (ip), vehicle: saline with Tween-80
# [7] = endpoint: mean survival time, dose: 100.0 mg/kg/injection, schedule: Q01DX009 (ip), vehicle: saline with Tween-80
# [8] = endpoint: mean survival time, dose: 100.0 mg/kg/injection, schedule: Q01DX009 (ip), vehicle: Klucel (hydroxypropylcellulose) (HPC)
# [9] = endpoint: mean survival time, dose: 200.0 mg/kg/injection, schedule: Q01DX009 (ip), vehicle: Klucel (hydroxypropylcellulose) (HPC)
structure (smiles),measurement,setting,value
N=c1ccn2c(n1)OC1C(OP(=O)(O)O)C(CO)OC12 (stereo not given),T/C,"endpoint: mean survival time, dose: 5.0 mg/kg/injection, schedule: Q01DX009 (ip), vehicle: saline",115 % of control
same,T/C,"endpoint: mean survival time, dose: 25.0 mg/kg/injection, schedule: Q01DX009 (oral), vehicle: saline",172 % of control
same,T/C,"endpoint: mean survival time, dose: 40.0 mg/kg/injection, schedule: Q01DX009 (ip), vehicle: saline",152 % of control
same,T/C,"endpoint: mean survival time, dose: 50.0 mg/kg/injection, schedule: Q01DX009 (oral), vehicle: saline",167 % of control
same,T/C,"endpoint: mean survival time, dose: 80.0 mg/kg/injection, schedule: Q01DX009 (ip), vehicle: saline",175 % of control
same,T/C,"endpoint: mean survival time, dose: 100.0 mg/kg/injection, schedule: Q01DX005 (ip), vehicle: saline",152 % of control and 160 % of control
same,T/C,"endpoint: mean survival time, dose: 100.0 mg/kg/injection, schedule: Q01DX009 (ip), vehicle: saline",184 % of control and 185 % of control
same,T/C,"endpoint: mean survival time, dose: 100.0 mg/kg/injection, schedule: Q01DX009 (oral), vehicle: saline",190 % of control
same,T/C,"endpoint: mean survival time, dose: 160.0 mg/kg/injection, schedule: Q01DX009 (ip), vehicle: saline",164 % of control
same,T/C,"endpoint: mean survival time, dose: 200.0 mg/kg/injection, schedule: Q01DX005 (ip), vehicle: saline",168 % of control and 178 % of control
same,T/C,"endpoint: mean survival time, dose: 200.0 mg/kg/injection, schedule: Q01DX009 (ip), vehicle: saline",163 % of control and 195 % of control
same,T/C,"endpoint: mean survival time, dose: 200.0 mg/kg/injection, schedule: Q01DX009 (oral), vehicle: saline",201 % of control
same,T/C,"endpoint: mean survival time, dose: 400.0 mg/kg/injection, schedule: Q01DX009 (ip), vehicle: saline",192 % of control and 212 % of control
same,T/C,"endpoint: mean survival time, dose: 400.0 mg/kg/injection, schedule: Q01DX009 (oral), vehicle: saline",245 % of control
same,T/C,"endpoint: mean survival time, dose: 800.0 mg/kg/injection, schedule: Q01DX009 (oral), vehicle: saline",260 % of control
same,T/C,"endpoint: median survival time, dose: 12.5 mg/kg/injection, schedule: Q01DX009 (oral), vehicle: saline",109 % of control
same,T/C,"endpoint: median survival time, dose: 12.5 mg/kg/injection, schedule: Q03HX008 (oral), vehicle: water",111 % of control
same,T/C,"endpoint: median survival time, dose: 25.0 mg/kg/injection, schedule: Q01DX009 (oral), vehicle: saline",109 % of control
same,T/C,"endpoint: median survival time, dose: 25.0 mg/kg/injection, schedule: Q03HX008 (oral), vehicle: water",111 % of control
same,T/C,"endpoint: median survival time, dose: 25.0 mg/kg/injection, schedule: Q03HX024 (oral), vehicle: water",172 % of control
same,T/C,"endpoint: median survival time, dose: 50.0 mg/kg/injection, schedule: Q01DX009 (oral), vehicle: saline",109 % of control
same,T/C,"endpoint: median survival time, dose: 50.0 mg/kg/injection, schedule: Q01DX009 (oral), vehicle: water",150 % of control
same,T/C,"endpoint: median survival time, dose: 50.0 mg/kg/injection, schedule: Q03HX024 (oral), vehicle: water",188 % of control
same,T/C,"endpoint: median survival time, dose: 100.0 mg/kg/injection, schedule: Q01DX009 (oral), vehicle: water",166 % of control
same,T/C,"endpoint: median survival time, dose: 100.0 mg/kg/injection, schedule: Q03HX024 (oral), vehicle: water",194 % of control
same,T/C,"endpoint: median survival time, dose: 200.0 mg/kg/injection, schedule: Q01DX001 (oral), vehicle: saline",100 % of control
same,T/C,"endpoint: median survival time, dose: 200.0 mg/kg/injection, schedule: Q01DX001 (oral), vehicle: water",116 % of control
same,T/C,"endpoint: median survival time, dose: 200.0 mg/kg/injection, schedule: Q01DX009 (oral), vehicle: water",188 % of control
same,T/C,"endpoint: median survival time, dose: 200.0 mg/kg/injection, schedule: Q03HX008 (oral), vehicle: water",161 % of control
same,T/C,"endpoint: median survival time, dose: 200.0 mg/kg/injection, schedule: Q03HX024 (oral), vehicle: water",200 % of control
same,T/C,"endpoint: median survival time, dose: 400.0 mg/kg/injection, schedule: Q01DX001 (oral), vehicle: saline",90 % of control
same,T/C,"endpoint: median survival time, dose: 400.0 mg/kg/injection, schedule: Q01DX001 (oral), vehicle: water",122 % of control
same,T/C,"endpoint: median survival time, dose: 400.0 mg/kg/injection, schedule: Q01DX009 (oral), vehicle: saline",177 % of control
same,T/C,"endpoint: median survival time, dose: 400.0 mg/kg/injection, schedule: Q01DX009 (oral), vehicle: water",211 % of control
same,T/C,"endpoint: median survival time, dose: 400.0 mg/kg/injection, schedule: Q03HX008 (oral), vehicle: water",111 % of control
same,T/C,"endpoint: median survival time, dose: 400.0 mg/kg/injection, schedule: Q03HX024 (oral), vehicle: water",94 % of control
same,T/C,"endpoint: median survival time, dose: 400.0 mg/kg/injection, schedule: Q04DX003 (oral), vehicle: water",155 % of control
same,T/C,"endpoint: median survival time, dose: 800.0 mg/kg/injection, schedule: Q01DX009 (oral), vehicle: saline",200 % of control
same,T/C,"endpoint: median survival time, dose: 800.0 mg/kg/injection, schedule: Q04DX003 (oral), vehicle: water",177 % of control
same,T/C,"endpoint: median survival time, dose: 1600.0 mg/kg/injection, schedule: Q01DX001 (oral), vehicle: saline",154 % of control
same,T/C,"endpoint: median survival time, dose: 1600.0 mg/kg/injection, schedule: Q04DX003 (oral), vehicle: water",188 % of control
same,T/C,"endpoint: median survival time, dose: 3200.0 mg/kg/injection, schedule: Q01DX001 (oral), vehicle: saline",168 % of control
same,T/C,"endpoint: median survival time, dose: 3200.0 mg/kg/injection, schedule: Q04DX003 (oral), vehicle: water",166 % of control
C=CCOc1ccc(C=O)cc1OCC=C,T/C,[1],101 % of control
same,T/C,[2],96 % of control
same,T/C,[3],101 % of control
Cc1ccc(N(C=O)N=O)cc1,T/C,[4],101 % of control
same,T/C,[5],98 % of control
CCCP(=S)(C(C)C)C(C)C,T/C,[6],103 % of control
O=C(/C=C(/c1ccccc1)P(=O)(c1ccccc1)c1ccccc1)c1ccccc1,T/C,[7],86 % of control
same,T/C,"endpoint: mean survival time, dose: 200.0 mg/kg/injection, schedule: Q01DX009 (ip), vehicle: saline with Tween-80",89 % of control
same,T/C,"endpoint: mean survival time, dose: 400.0 mg/kg/injection, schedule: Q01DX009 (ip), vehicle: saline with Tween-80",88 % of control
Nc1nc(N)c(-c2ccc(Cl)c(Cl)c2)c(/C=C/C=C/c2cccnc2)n1,T/C,"endpoint: mean survival time, dose: 16.7 mg/kg/injection, schedule: Q01DX009 (ip), vehicle: saline with Tween-80",112 % of control
same,T/C,"endpoint: mean survival time, dose: 37.5 mg/kg/injection, schedule: Q01DX009 (ip), vehicle: saline with Tween-80",86 % of control
Cc1ccc(OC(=O)/C=C/C(=O)Oc2ccc(C)cc2)cc1,T/C,[8],97 % of control
same,T/C,[1],105 % of control
same,T/C,[9],95 % of control
same,T/C,[2],98 % of control
same,T/C,"endpoint: mean survival time, dose: 400.0 mg/kg/injection, schedule: Q01DX009 (ip), vehicle: Klucel (hydroxypropylcellulose) (HPC)",88 % of control
same,T/C,[3],108 % of control
c1ccc2c(c1)CCC1C3CCCC3OCN21 (stereo not given),T/C,"endpoint: mean survival time, dose: 50.0 mg/kg/injection, schedule: Q04DX002 (ip), vehicle: saline with Tween-80",101 % of control
same,T/C,"endpoint: mean survival time, dose: 100.0 mg/kg/injection, schedule: Q04DX002 (ip), vehicle: saline with Tween-80",101 % of control
same,T/C,"endpoint: mean survival time, dose: 200.0 mg/kg/injection, schedule: Q04DX002 (ip), vehicle: saline with Tween-80",104 % of control
CC1(C)OCC(COCc2ccccc2)O1 (stereo not given),T/C,[6],96 % of control
same,T/C,"endpoint: mean survival time, dose: 200.0 mg/kg/injection, schedule: Q04DX003 (ip), vehicle: saline with Tween-80",104 % of control
same,T/C,"endpoint: mean survival time, dose: 400.0 mg/kg/injection, schedule: Q04DX003 (ip), vehicle: saline with Tween-80",95 % of control
COc1ccc2nc3cc(Cl)ccc3c(NCCNCCNCCNc3c4ccc(Cl)cc4nc4ccc(OC)cc34)c2c1,T/C,"endpoint: mean survival time, dose: 6.25 mg/kg/injection, schedule: Q01DX009 (ip), vehicle: saline with Tween-80",100 % of control
same,T/C,"endpoint: mean survival time, dose: 12.5 mg/kg/injection, schedule: Q01DX009 (ip), vehicle: saline with Tween-80",91 % of control
same,T/C,"endpoint: mean survival time, dose: 25.0 mg/kg/injection, schedule: Q01DX009 (ip), vehicle: saline with Tween-80",101 % of control
same,T/C,[7],107 % of control
Cc1ccc(N2C=Nc3ccc(C)cc3C2)cc1,T/C,[8],92 % of control
same,T/C,"endpoint: mean survival time, dose: 100.0 mg/kg/injection, schedule: Q04DX003 (ip), vehicle: other",107 % of control
same,T/C,[9],104 % of control
same,T/C,"endpoint: mean survival time, dose: 200.0 mg/kg/injection, schedule: Q04DX003 (ip), vehicle: other",90 % of control
NC1=NC(c2ccccc2)C2=C(N1)C(=O)N(c1ccc(Br)cc1)C2 (stereo not given),T/C,"endpoint: mean survival time, dose: 18.75 mg/kg/injection, schedule: Q01DX009 (ip), vehicle: saline",88 % of control
same,T/C,"endpoint: mean survival time, dose: 37.5 mg/kg/injection, schedule: Q01DX009 (ip), vehicle: saline",86 % of control
same,T/C,"endpoint: mean survival time, dose: 75.0 mg/kg/injection, schedule: Q01DX001 (ip), vehicle: saline",93 % of control
same,T/C,"endpoint: mean survival time, dose: 75.0 mg/kg/injection, schedule: Q01DX009 (ip), vehicle: saline",91 % of control
same,T/C,"endpoint: mean survival time, dose: 150.0 mg/kg/injection, schedule: Q01DX001 (ip), vehicle: saline",90 % of control
same,T/C,"endpoint: mean survival time, dose: 300.0 mg/kg/injection, schedule: Q01DX001 (ip), vehicle: saline",95 % of control
NNc1ccc(Br)cc1,T/C,"endpoint: mean survival time, dose: 100.0 mg/kg/injection, schedule: Q04DX002 (ip), vehicle: Klucel (hydroxypropylcellulose) (HPC)",102 % of control
same,T/C,"endpoint: mean survival time, dose: 200.0 mg/kg/injection, schedule: Q04DX002 (ip), vehicle: Klucel (hydroxypropylcellulose) (HPC)",115 % of control
CCCCCC(CCCCC)c1ccccn1,T/C,[4],94 % of control
same,T/C,[5],103 % of control
same,T/C,"endpoint: mean survival time, dose: 400.0 mg/kg/injection, schedule: Q01DX001 (ip), vehicle: saline",100 % of control
